{"source": "paper PMC9687021", "about": "“Bactericidal and Anti-Biofilm Activity of the FtsZ Inhibitor C109 against Acinetobacter baumannii” (Antibiotics, 2022)", "biological_target": "T1, FtsZ (Acinetobacter baumannii, UniProt A0ABX6CKC9)", "T1 construct": "full-length (1176 bp ftsZ gene), SUMO tag removed", "T1 sequence (A0ABX6CKC9 entry or part of it)": "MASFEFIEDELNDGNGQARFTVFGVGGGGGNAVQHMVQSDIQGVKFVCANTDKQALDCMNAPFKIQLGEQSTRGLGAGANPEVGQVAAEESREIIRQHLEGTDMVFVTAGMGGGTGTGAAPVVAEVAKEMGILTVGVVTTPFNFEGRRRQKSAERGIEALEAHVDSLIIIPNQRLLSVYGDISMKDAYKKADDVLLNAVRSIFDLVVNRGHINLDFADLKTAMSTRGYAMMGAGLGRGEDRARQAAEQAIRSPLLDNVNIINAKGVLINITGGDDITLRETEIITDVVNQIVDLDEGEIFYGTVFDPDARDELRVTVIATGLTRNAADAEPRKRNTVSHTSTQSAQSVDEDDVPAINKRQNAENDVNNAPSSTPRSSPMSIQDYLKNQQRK", "assay": "PK/LDH coupled GTPase assay on purified FtsZ; sedimentation polymerization assay", "type": "biochemical", "data": [{"smiles": "COC(=O)CSc1ccc2nsnc2c1[N+](=O)[O-]", "note": "[C109, methyl [(4-nitro-2,1,3-benzothiadiazol-5-yl)thio]acetate]", "values": [{"measurement": "IC50", "value": 11.8, "unit": "µM"}]}]}
